Measurements from patent publication US20240300932A1, “N-PHENYLIMINE DERIVATIVE AND PREPARATION METHOD AND USE THEREOF” (Guizhou University, priority 2023, published 2024).

How the values were obtained:
[1] = system: Echinochloa crusgalli; test: Post-emergence herbicidal activity test (stem and leaf spray, pot culture); assay type: in vivo; settings: 3 weeks after spraying
In short: (§1)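 Graded 0–5 on fresh-weight growth control rate 3 weeks after a single spray-tower application at 10, 5 or 2.5 g/mu. Compounds in acetone with Tween 80 and methyl oleate synergist (1.5 liters/ha), applied to greenhouse weeds at 2- to 3-leaf stage.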

[2] = system: Portulaca oleracea; test: as above; assay type: in vivo; settings: 3 weeks after spraying
In short: as §1

[3] = system: Amaranthus retroflexus; test: as above; assay type: in vivo; settings: 3 weeks after spraying
In short: as §1

[4] = system: Setaria viridis; test: as above; assay type: in vivo; settings: 3 weeks after spraying
In short: as §1

[5] = system: Abutilon theophrasti; test: as above; assay type: in vivo; settings: 3 weeks after spraying
In short: as §1

[6] = system: Trifoliumre pensL.; test: as above; assay type: in vivo; settings: 3 weeks after spraying
In short: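 Rates of 10, 5 and 2.5 g/mu were applied in a single spray-tower treatment to 2–3-leaf plants, thinned to 10 per pot. Formulation: acetone solution, Tween 80, 1.5 L/ha methyl oleate synergist. Weed response assessed after 3 further greenhouse weeks; mean of three experiments.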

Row | SMILES | melting point [°C] | Post-emergence herbicidal activity, E. crusgalli (grade) ([1]; dosage 2.5 g/mu) | Post-emergence herbicidal activity, E. crusgalli (grade) ([1]; dosage 5 g/mu) | Post-emergence herbicidal activity, E. crusgalli (grade) ([1]; dosage 10 g/mu) | Post-emergence herbicidal activity, P. oleracea (grade) ([2]; dosage 2.5 g/mu) | Post-emergence herbicidal activity, P. oleracea (grade) ([2]; dosage 5 g/mu) | Post-emergence herbicidal activity, P. oleracea (grade) ([2]; dosage 10 g/mu) | Post-emergence herbicidal activity, A. retroflexus (grade) ([3]; dosage 2.5 g/mu) | Post-emergence herbicidal activity, A. retroflexus (grade) ([3]; dosage 5 g/mu) | Post-emergence herbicidal activity, A. retroflexus (grade) ([3]; dosage 10 g/mu) | Post-emergence herbicidal activity, S. viridis (grade) ([4]; dosage 2.5 g/mu) | Post-emergence herbicidal activity, S. viridis (grade) ([4]; dosage 5 g/mu) | Post-emergence herbicidal activity, S. viridis (grade) ([4]; dosage 10 g/mu) | Post-emergence herbicidal activity, A. theophrasti (grade) ([5]; dosage 2.5 g/mu) | Post-emergence herbicidal activity, A. theophrasti (grade) ([5]; dosage 5 g/mu) | Post-emergence herbicidal activity, A. theophrasti (grade) ([5]; dosage 10 g/mu) | Post-emergence herbicidal activity, Trifoliumre pensL. (grade) ([6]; dosage 2.5 g/mu) | Post-emergence herbicidal activity, Trifoliumre pensL. (grade) ([6]; dosage 5 g/mu) | Post-emergence herbicidal activity, Trifoliumre pensL. (grade) ([6]; dosage 10 g/mu)
1 | Cc1ccc(-c2nnc(COc3cc(N4C(=O)C5=C(CCCC5)C4=O)c(F)cc3Cl)o2)cc1 [Compound B13, 2-(4-chloro-2-fluoro-5-((5-(4-tolyl)-1,3,4-oxadiazole-2-yl)methoxy)phenyl)-4,5,6,7-tetrahydro-1H-isoindole-1,3(2H)-dione] | 104 to 106 | 1 (Grade 1: the growth control rate is greater than or equal to 5% and less than 20%) | 2 (Grade 2: the growth control rate is greater than or equal to 20% and less than 40%) | 3 (Grade 3: the growth control rate is greater than or equal to 40% and less than 60%) | 5 (Grade 5: the growth control rate is greater than or equal to 85%) | 5 (Grade 5: the growth control rate is greater than or equal to 85%) | 5 (Grade 5: the growth control rate is greater than or equal to 85%) | 5 (Grade 5: the growth control rate is greater than or equal to 85%) | 5 (Grade 5: the growth control rate is greater than or equal to 85%) | 5 (Grade 5: the growth control rate is greater than or equal to 85%) | 2 (Grade 2: the growth control rate is greater than or equal to 20% and less than 40%) | 3 (Grade 3: the growth control rate is greater than or equal to 40% and less than 60%) | 4 (Grade 4: the growth control rate is greater than or equal to 60% and less than 85%) | 5 (Grade 5: the growth control rate is greater than or equal to 85%) | 5 (Grade 5: the growth control rate is greater than or equal to 85%) | 5 (Grade 5: the growth control rate is greater than or equal to 85%) | 5 (Grade 5: the growth control rate is greater than or equal to 85%) | 5 (Grade 5: the growth control rate is greater than or equal to 85%) | 5 (Grade 5: the growth control rate is greater than or equal to 85%)
2 | O=C(COc1cc(N2C(=O)C3=C(CCCC3)C2=O)c(F)cc1Cl)c1ccccc1 [Compound C1, 2-(4-chloro-2-fluoro-5-(2-oxo-2-phenylethoxy)phenyl)-4,5,6,7-tetrahydro-1H-isoindole-1,3(2H)-dione] | 124 to 131 | 1 (Grade 1: the growth control rate is greater than or equal to 5% and less than 20%) | 2 (Grade 2: the growth control rate is greater than or equal to 20% and less than 40%) | 3 (Grade 3: the growth control rate is greater than or equal to 40% and less than 60%) | 5 (Grade 5: the growth control rate is greater than or equal to 85%) | 5 (Grade 5: the growth control rate is greater than or equal to 85%) | 5 (Grade 5: the growth control rate is greater than or equal to 85%) | 5 (Grade 5: the growth control rate is greater than or equal to 85%) | 5 (Grade 5: the growth control rate is greater than or equal to 85%) | 5 (Grade 5: the growth control rate is greater than or equal to 85%) | 2 (Grade 2: the growth control rate is greater than or equal to 20% and less than 40%) | 3 (Grade 3: the growth control rate is greater than or equal to 40% and less than 60%) | 4 (Grade 4: the growth control rate is greater than or equal to 60% and less than 85%) | 5 (Grade 5: the growth control rate is greater than or equal to 85%) | 5 (Grade 5: the growth control rate is greater than or equal to 85%) | 5 (Grade 5: the growth control rate is greater than or equal to 85%) | 5 (Grade 5: the growth control rate is greater than or equal to 85%) | 5 (Grade 5: the growth control rate is greater than or equal to 85%) | 5 (Grade 5: the growth control rate is greater than or equal to 85%)
3 | N#Cc1ccc(C(=O)COc2cc(N3C(=O)C4=C(CCCC4)C3=O)c(F)cc2Cl)cc1 [Compound C3, 2-(4-chloro-2-fluoro-5-(2-oxo-2-(4-cyanophenyl)ethoxy)phenyl)-4,5,6,7-tetrahydro-1H-isoindole-1,3(2H)-dione] | 171 to 178 | 1 (Grade 1: the growth control rate is greater than or equal to 5% and less than 20%) | 2 (Grade 2: the growth control rate is greater than or equal to 20% and less than 40%) | 3 (Grade 3: the growth control rate is greater than or equal to 40% and less than 60%) | 5 (Grade 5: the growth control rate is greater than or equal to 85%) | 5 (Grade 5: the growth control rate is greater than or equal to 85%) | 5 (Grade 5: the growth control rate is greater than or equal to 85%) | 5 (Grade 5: the growth control rate is greater than or equal to 85%) | 5 (Grade 5: the growth control rate is greater than or equal to 85%) | 5 (Grade 5: the growth control rate is greater than or equal to 85%) | 2 (Grade 2: the growth control rate is greater than or equal to 20% and less than 40%) | 3 (Grade 3: the growth control rate is greater than or equal to 40% and less than 60%) | 4 (Grade 4: the growth control rate is greater than or equal to 60% and less than 85%) | 5 (Grade 5: the growth control rate is greater than or equal to 85%) | 5 (Grade 5: the growth control rate is greater than or equal to 85%) | 5 (Grade 5: the growth control rate is greater than or equal to 85%) | 5 (Grade 5: the growth control rate is greater than or equal to 85%) | 5 (Grade 5: the growth control rate is greater than or equal to 85%) | 5 (Grade 5: the growth control rate is greater than or equal to 85%)
